Reference: patent US12559526B2, “Complement component 1s (C1s) deficient cells for production of vaccines and biopharmaceutical proteins” (The Regents of the University of California, priority 2018, dated 2026)

Target: T1, C1s (Cricetulus griseus, UniProt G3GUR0)
T1 construct: endogenous in cells; host or cells: CHO cells; FreeStyle CHO-S (Thermo Fisher) named in Materials and Methods; 10x concentrated culture supernatant
Experiment: Proteolysis of purified MN gp120 by 10× concentrated CHO supernatant, western blot
Type: biochemical, Chinese Hamster
Settings: purified MN gp120 (clade B) combined with 10× concentrated CHO supernatant; reduced with DTT; goat polyclonal anti-gp120 western blot
Experimental: FIGS. 8A and 8B. […] FIG. 8A. Purified MN gp120, a clade B protein, was combined with 10× concentrated CHO supernatant. Samples were reduced with DTT and probed on western blot using a goat polyclonal antibody against gp120. FIG. 8B provides details of samples loaded in lanes 1-5 in FIG. 8A. The serine protease inhibitor, 4-AMB was used.
Enrichment of protease from CHO cell culture supernatant was carried out using a series of chromatography columns to enrich for protein containing proteolytic activity. Individual chromatography fractions (CHO cell culture supernatant was fractionated based on size using size exclusion chromatography, followed by further purification on strong anion-exchange column) were assayed for the presence of protease activity against purified gp120.

T1 sequence (G3GUR0 entry or part of it): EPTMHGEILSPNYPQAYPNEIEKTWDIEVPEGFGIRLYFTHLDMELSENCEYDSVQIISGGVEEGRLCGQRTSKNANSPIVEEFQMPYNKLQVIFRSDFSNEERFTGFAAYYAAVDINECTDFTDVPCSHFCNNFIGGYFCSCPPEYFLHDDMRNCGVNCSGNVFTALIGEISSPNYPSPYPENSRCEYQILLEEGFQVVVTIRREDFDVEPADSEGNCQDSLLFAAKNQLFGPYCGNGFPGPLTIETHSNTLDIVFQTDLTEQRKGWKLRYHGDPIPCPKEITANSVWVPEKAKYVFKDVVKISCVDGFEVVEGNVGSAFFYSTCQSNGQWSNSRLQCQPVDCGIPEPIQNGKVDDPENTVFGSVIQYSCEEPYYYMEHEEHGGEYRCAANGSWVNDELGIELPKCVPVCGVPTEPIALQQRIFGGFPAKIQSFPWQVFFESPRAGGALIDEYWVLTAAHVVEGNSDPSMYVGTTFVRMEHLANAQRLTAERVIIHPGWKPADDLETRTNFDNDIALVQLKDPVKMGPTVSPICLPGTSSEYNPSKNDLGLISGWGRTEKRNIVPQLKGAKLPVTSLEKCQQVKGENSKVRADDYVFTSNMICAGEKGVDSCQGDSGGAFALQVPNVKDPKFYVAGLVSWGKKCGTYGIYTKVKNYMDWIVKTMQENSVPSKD

O=C(O)CN(CCOCCOCCN(CC(=O)O)CC(=O)O)CC(=O)O [EGTA]
proteolysis of gp120 in CHO cell supernatant: Inhibition of proteolysis
